PubChem BioAssay AID248 (DTP/NCI, 2004)
Values joined by “and” are separate entries in the source; they are usually repeats but may differ in a detail not shown here. Equal entries are not always repeated. Toxic doses and inconclusive results are not listed. Rule as the data show it: active = T/C of 150% or more; inactive = T/C below 125%.

Test system: L1210 leukemia ip in BDF1 mice, survival T/C
Assay: NCI In Vivo Anticancer Drug Screen. Data for tumor model L1210 Leukemia (intraperitoneal) in B6D2F1 (BDF1) mice
Conditions: endpoint: mean survival time, higher = longer survival
Summary of the method: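 Mice bearing the transplanted tumor received compound or vehicle. Survival of the treated group was divided by that of the vehicle-treated control group to give the ratio.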

[1] = dose: 100.0 mg/kg/injection, schedule: Q04DX003 (ip), vehicle: saline
[2] = dose: 200.0 mg/kg/injection, schedule: Q04DX003 (ip), vehicle: saline
[3] = dose: 400.0 mg/kg/injection, schedule: Q04DX003 (ip), vehicle: saline
[4] = dose: 100.0 mg/kg/injection, schedule: Q01DX001 (ip), vehicle: saline
[5] = dose: 200.0 mg/kg/injection, schedule: Q01DX009 (ip), vehicle: saline
[6] = dose: 400.0 mg/kg/injection, schedule: Q01DX001 (ip), vehicle: saline
[7] = dose: 200.0 mg/kg/injection, schedule: Q01DX001 (ip), vehicle: saline
[8] = dose: 100.0 mg/kg/injection, schedule: Q01DX009 (ip), vehicle: saline
[9] = dose: 400.0 mg/kg/injection, schedule: Q01DX009 (ip), vehicle: saline

Measured: T/C

O=C(n1ccnc1)C(F)(F)C(F)(F)C(F)(F)F
inactive: dose: 100.0 mg/kg/injection, schedule: Q01DX001 (ip), vehicle: saline sonified 101 % of control | [1] 96 % of control | dose: 200.0 mg/kg/injection, schedule: Q01DX001 (ip), vehicle: saline sonified 110 % of control | [2] 96 % of control | dose: 400.0 mg/kg/injection, schedule: Q01DX001 (ip), vehicle: saline sonified 106 % of control | [3] 89 % of control

O=C1NC(c2ccc3ccccc3c2)Nc2ccccc21 (configuration not stated)
inactive: dose: 100.0 mg/kg/injection, schedule: Q04DX003 (ip), vehicle: Klucel (hydroxypropylcellulose) (HPC) 103 % of control | dose: 200.0 mg/kg/injection, schedule: Q04DX003 (ip), vehicle: Klucel (hydroxypropylcellulose) (HPC) 107 % of control | dose: 400.0 mg/kg/injection, schedule: Q04DX003 (ip), vehicle: Klucel (hydroxypropylcellulose) (HPC) 105 % of control

COC(OC(CO)C(O)S(=O)(=O)O)C(O)S(=O)(=O)O (configuration not stated)
active: [4] 244 % of control | dose: 100.0 mg/kg/injection, schedule: Q03HX008 (ip), vehicle: saline 152 % of control | dose: 100.0 mg/kg/injection, schedule: Q03HX024 (ip), vehicle: saline 167 % of control | [5] 151 % of control | dose: 280.0 mg/kg/injection, schedule: Q01DX009 (ip), vehicle: saline 152 % of control | [6] 194 % of control | [3] 151 % of control
inactive: dose: 12.5 mg/kg/injection, schedule: Q03HX008 (ip), vehicle: saline 100 % of control | dose: 12.5 mg/kg/injection, schedule: Q03HX016 (ip), vehicle: saline 97 % of control | dose: 12.5 mg/kg/injection, schedule: Q03HX024 (ip), vehicle: saline 102 % of control | dose: 25.0 mg/kg/injection, schedule: Q03HX008 (ip), vehicle: saline 97 % of control | dose: 25.0 mg/kg/injection, schedule: Q03HX016 (ip), vehicle: saline 102 % of control | dose: 25.0 mg/kg/injection, schedule: Q03HX024 (ip), vehicle: saline 107 % of control | dose: 35.0 mg/kg/injection, schedule: Q01DX001 (ip), vehicle: saline 105 % of control and 114 % of control | dose: 35.0 mg/kg/injection, schedule: Q01DX009 (ip), vehicle: saline 123 % of control | dose: 50.0 mg/kg/injection, schedule: Q01DX009 (sc), vehicle: saline 107 % of control | dose: 50.0 mg/kg/injection, schedule: Q03HX008 (ip), vehicle: saline 117 % of control | dose: 50.0 mg/kg/injection, schedule: Q03HX016 (ip), vehicle: saline 113 % of control | dose: 50.0 mg/kg/injection, schedule: Q03HX024 (ip), vehicle: saline 122 % of control | dose: 70.0 mg/kg/injection, schedule: Q01DX001 (ip), vehicle: saline 112 % of control and 121 % of control | dose: 100.0 mg/kg/injection, schedule: Q01DX009 (oral), vehicle: saline 107 % of control | dose: 100.0 mg/kg/injection, schedule: Q01DX009 (sc), vehicle: saline 115 % of control | [1] 122 % of control | dose: 140.0 mg/kg/injection, schedule: Q01DX001 (ip), vehicle: saline 120 % of control and 121 % of control | dose: 200.0 mg/kg/injection, schedule: Q01DX009 (oral), vehicle: saline 116 % of control | dose: 200.0 mg/kg/injection, schedule: Q01DX009 (sc), vehicle: saline 113 % of control | dose: 280.0 mg/kg/injection, schedule: Q01DX001 (ip), vehicle: saline 124 % of control | dose: 400.0 mg/kg/injection, schedule: Q01DX009 (oral), vehicle: saline 116 % of control | dose: 800.0 mg/kg/injection, schedule: Q01DX009 (oral), vehicle: saline 103 % of control

CC1(N)COP(=O)(NC2CCCC2)OC1 (configuration not stated)
inactive: [4] 100 % of control | [7] 105 % of control | [6] 91 % of control

NC(CSCCc1ccccn1)C(=O)O (configuration not stated)
inactive: [8] 107 % of control | [1] 101 % of control | [5] 104 % of control | [2] 104 % of control | [9] 105 % of control | [3] 94 % of control

CC(/C=N/N=C(N)N)=N\NC(N)=S
inactive: dose: 15.0 mg/kg/injection, schedule: Q01DX Z (ip), vehicle: carboxymethylcellulose (CMC) 98 % of control | dose: 30.0 mg/kg/injection, schedule: Q01DX Z (ip), vehicle: carboxymethylcellulose (CMC) 101 % of control | dose: 30.0 mg/kg/injection, schedule: Q01DX Z (oral), vehicle: carboxymethylcellulose (CMC) 103 % of control | dose: 60.0 mg/kg/injection, schedule: Q01DX Z (ip), vehicle: carboxymethylcellulose (CMC) 111 % of control | dose: 60.0 mg/kg/injection, schedule: Q01DX Z (oral), vehicle: carboxymethylcellulose (CMC) 103 % of control | dose: 120.0 mg/kg/injection, schedule: Q01DX Z (ip), vehicle: carboxymethylcellulose (CMC) 114 % of control | dose: 120.0 mg/kg/injection, schedule: Q01DX Z (oral), vehicle: carboxymethylcellulose (CMC) 106 % of control | dose: 240.0 mg/kg/injection, schedule: Q01DX Z (oral), vehicle: carboxymethylcellulose (CMC) 105 % of control

Cc1nnc2[nH]c(=O)[nH]c(=O)c2n1
inactive: dose: 50.0 mg/kg/injection, schedule: Q01DX001 (ip), vehicle: saline 98 % of control | [4] 104 % of control | [7] 101 % of control | [6] 98 % of control

CC1OC(OC2CCC3(C)C(CCC4C3CC(O)C3(C)C(C5=CC(=O)OC5)CCC43O)C2)CC(O)C1OC1CC(O)C(OC2CC(O)C(OC3OC(CO)C(O)C(O)C3O)C(C)O2)C(C)O1 (configuration not stated)
inactive: dose: 4.0 mg/kg/injection, schedule: Q01DX015 (sc), vehicle: steriod suspending solution 96 % of control | dose: 8.0 mg/kg/injection, schedule: Q01DX015 (sc), vehicle: steriod suspending solution 104 % of control | dose: 16.0 mg/kg/injection, schedule: Q01DX015 (sc), vehicle: steriod suspending solution 102 % of control | dose: 32.0 mg/kg/injection, schedule: Q01DX015 (sc), vehicle: steriod suspending solution 98 % of control | [4] 100 % of control | [7] 101 % of control | [6] 100 % of control

CCCCCCCCCCCCCCCCCCCCCC1CCCC1
inactive: dose: 100.0 mg/kg/injection, schedule: Q04DX003 (ip), vehicle: other 96 % of control | dose: 200.0 mg/kg/injection, schedule: Q04DX003 (ip), vehicle: other 94 % of control | dose: 400.0 mg/kg/injection, schedule: Q04DX003 (ip), vehicle: other 96 % of control

CCOC(=O)C(=CNc1ccccc1OC)C(=O)OCC
inactive: dose: 50.0 mg/kg/injection, schedule: Q01DX009 (ip), vehicle: saline with Tween-80 95 % of control | dose: 100.0 mg/kg/injection, schedule: Q01DX009 (ip), vehicle: saline with Tween-80 102 % of control | dose: 100.0 mg/kg/injection, schedule: Q04DX003 (ip), vehicle: saline with Tween-80 98 % of control | dose: 200.0 mg/kg/injection, schedule: Q01DX009 (ip), vehicle: saline with Tween-80 106 % of control | dose: 200.0 mg/kg/injection, schedule: Q04DX003 (ip), vehicle: saline with Tween-80 110 % of control | dose: 400.0 mg/kg/injection, schedule: Q01DX009 (ip), vehicle: saline with Tween-80 98 % of control | dose: 400.0 mg/kg/injection, schedule: Q04DX003 (ip), vehicle: saline with Tween-80 102 % of control

CC(C)NCC(O)c1cccc(O)c1 (configuration not stated)
inactive: dose: 50.0 mg/kg/injection, schedule: Q04DX003 (ip), vehicle: saline 101 % of control | [4] 98 % of control | [1] 101 % of control | [7] 97 % of control | [2] 104 % of control

O=C(CCCN1CCC(O)CC1)c1ccc(N2CC=C(c3ccccc3)CC2)cc1
inactive: dose: 100.0 mg/kg/injection, schedule: Q04DX002 (ip), vehicle: Klucel (hydroxypropylcellulose) (HPC) 104 % of control | dose: 200.0 mg/kg/injection, schedule: Q04DX002 (ip), vehicle: Klucel (hydroxypropylcellulose) (HPC) 100 % of control

Oc1cc(O)cc(O)c1
inactive: [8] 96 % of control | dose: 100.0 mg/kg/injection, schedule: Q04DX002 (ip), vehicle: saline 115 % of control | [5] 100 % of control | dose: 200.0 mg/kg/injection, schedule: Q04DX002 (ip), vehicle: saline 104 % of control | [9] 100 % of control | dose: 400.0 mg/kg/injection, schedule: Q04DX002 (ip), vehicle: saline 100 % of control

O=S(=O)(CCCCCCl)Cc1ccccc1
inactive: [4] 93 % of control | [7] 93 % of control | [6] 96 % of control
